From patent US12653872B2, “Mimotopes of alpha-synuclein and vaccines thereof for the treatment of synucleinopathy” (AC Immune SA, priority 2008, dated 2026)
Values belong to the substance of their own block, whether it stands above or below them.

Tests used:
[1] = test system: monoclonal antibody specific for human alpha-synuclein at position 115-122 (AFFiRiS3/9, A509); experiment: In vitro inhibition assay (ELISA): peptide competes with binding of the antibody to the coated original epitope; parameters: species or system mouse; conditions: for Inhibition: competition code, OD at 40 μg peptide compared to original peptide; for competition in inhibition ELISA: 40 μg peptide, compared to original peptide p4448, FIG. 3
Method: 2. In Vitro Inhibition Assay (ELISA)
Different amounts of peptides (concentrations ranging from 40 μg to 0.3 μg (serial dilutions), as indicated in the respective figures) derived from Phage Display were incubated with the monoclonal antibody that was used for the screening procedure. Peptides diminishing subsequent binding of the antibody to the original human alpha-synuclein epitope (amino acids: 115-122 of human alpha-synuclein protein) coated on ELISA plates were considered as inhibiting in this assay.
Weak inhibition means more peptide is required to lower AB binding than with the original epitope; strong inhibition means similar peptide amounts are required for mimotope and original epitope for lowering AB binding. Mimotopes are compared to the original peptide as standard. OD at 40 μg peptide used in the assay is used to calculate the competition capacity compared to original peptide.

irrelevant peptide p1253 = experiment: Mimotope-KLH vaccination of mice: serum titer against irrelevant peptide (ELISA); type: in vivo; conditions: C57/Bl6 mice, alum
Method: (§1) Inhibiting as well as non-inhibiting peptides were coupled to KLH and injected into mice (wildtype C57/Bl6 mice; subcutaneous injection into the flank) together with an appropriate adjuvant (aluminium hydroxide). Animals were vaccinated 4-6 times in biweekly intervals and sera were taken biweekly as well. Titers to injected peptides as well as to an irrelevant peptide were determined with every serum. Titers against the recombinant human alpha-synuclein protein and recombinant human beta-synuclein were determined starting with Serum 3 respectively. Pooled sera were tested against the original human alpha-synuclein epitope (aa115-122). In general sera were analysed by reaction against peptides coupled to Bovine Serum Albumin (BSA) and recombinant full length proteins which were immobilised on ELISA plates. Titers were determined using anti mouse IgG specific antibodies. For detailed results see FIGS. 4A, 4B, 5A and 5B.
(§2) Female C57/Bl6 mice, 5-6 mice per group, were subcutaneously immunized with 30 μg peptide coupled to KLH. Control groups were administered p4448-KLH conjugate. As adjuvant alum was used (always 1 mg per mouse). […] The in vitro ELISA assay to determine the antibody titer was performed with sera of single mice or pooled sera (see FIGS. 5A and 5B) after each vaccination in a two week interval (see FIGS. 4A, 4B, 5A and 5B, respectively). The wells of the ELISA plate were coated with mimotope-BSA conjugate and an irrelevant peptide-BSA conjugate (negative control). The positive control was performed by reaction of the parental antibody with the respective mimotope-BSA conjugate. The detection was performed with anti-mouse IgG. Additionally, recombinant proteins were immobilised on ELISA plates and sera reacted accordingly.

[2] = test system: injected peptide (peptide-BSA conjugate); experiment: Mimotope-KLH vaccination of mice: serum titer against injected peptide (ELISA); type: in vivo, C57/Bl6 mice; conditions: for immune response against injected peptide: C57/Bl6 mice, 30 μg peptide-KLH s.c., alum, repeated vaccination; for titers upon vaccination of mice: FIG. 2 legend
Method: as §1, §2

[3] = test system: monoclonal antibody specific for human alpha-synuclein at position 115-122 (AFFiRiS3/9, A509); experiment: In vitro binding assay (ELISA): peptide-BSA on plate, incubated with the screening monoclonal antibody; parameters: species or system mouse; conditions: FIG. 1 and FIG. 2
Source text: 1. In Vitro Binding Assay (ELISA)

[4] = test system: recombinant human alpha-synuclein protein; experiment: Mimotope-KLH vaccination of mice: serum titer against recombinant alpha-synuclein (ELISA); type: in vivo, C57/Bl6 mice; conditions: pooled sera after 4 vaccinations; FIG. 5B
Method: as §1, §2

[5] = test system: recombinant human beta-synuclein; experiment: Mimotope-KLH vaccination of mice: serum titer against recombinant beta-synuclein (ELISA); type: in vivo, C57/Bl6 mice; conditions: pooled sera after 4 vaccinations, FIG. 5B
Method: as §1, §2

[6] = test system: human a-syn on brain sections of mice overexpressing human a-syn; experiment: In situ testing: immunohistochemistry with mimotope-induced sera on mouse brain sections; conditions: for potential to induce a-syn specific antibodies: vaccines based on the peptide
Method: Selected sera eliciting an a-syn cross reactivity were also tested for the ability to detect human a-syn on mouse brain sections in situ. For detailed results see FIGS. 6A, 6B and 6C.
Mimotopes eliciting an a-syn specific immune response can also detect a-syn immunoreactive inclusions in transgenic mouse brain tissue. As depicted in FIGS. 6A, 6B and 6C, sera derived from mimotope vaccinated animals are able to stain a-syn positive structures present on mouse brain sections from animals overexpressing human a-syn. Briefly, sera positive for human a-syn reactivity in ELISA have been used for immunohistochemistry (IHC). Paraffin embedded […] sections of mouse brain, mounted on Superfrost Plus glass slides, were subjected to IHC. Sections were incubated with sera (dilution 1:100 and 1:400 in PBS) and subsequently stained according to standard protocols for immunohistochemistry using VECTASTAIN™ ABC Systems (which is an Avidin-Biotin Complex Immunohistochemical Staining Kit from Vector Laboratories), DAB and MOM blocking (all reactions have been performed using commercially available reagents obtained from Vector labs respectively and have been performed according to manufacturer's protocols). Counterstaining was performed with Haematoxylin. Slides were mounted in Entellan and subsequently documented using conventional brightfield microscopy. A monoclonal antibody specific for human a-syn (LB509, Covance) has been used as a positive control for synuclein detection at a final dilution of 1/250.

Substance: CDAPVTPDT [p4563]
Inhibition [1]: 1 (Weaker than original epitope (OD of 40 μg peptide below 5 times of original peptide))

Substance: CDAPVYPDG [p4570]
Inhibition [1]: 1 (Weaker than original epitope (OD of 40 μg peptide below 5 times of original peptide))

Substance: CDHPVHPDS [p4554]
Inhibition [1]: 1 (Weaker than original epitope (OD of 40 μg peptide below 5 times of original peptide))

Substance: CDHPVTPDR [p4559]
Inhibition [1]: 1 (Weaker than original epitope (OD of 40 μg peptide below 5 times of original peptide))

Substance: CDLPVTPDR [p4566]
Inhibition [1]: 1 (Weaker than original epitope (OD of 40 μg peptide below 5 times of original peptide))

Substance: CDMPVDPDN [p4448, reference compound]
immune response against unrelated sequence p1253 (irrelevant peptide p1253): failed to induce an unspecific immune response
immune response against injected peptide [2]: elicited immune responses against the injected peptide
binding to / detection by the monoclonal antibody in ELISA [3]: are detected by the antibody
reactivity of induced sera with alpha-synuclein [4]: show titers against alpha-synuclein
reactivity of induced sera with beta-synuclein [5]: detect alpha and beta-synuclein
reactivity of induced sera with beta-synuclein ([5]; listed as original epitope): also detected the full length beta-synuclein protein

binding to / detection by the monoclonal antibody in ELISA [3]: are not detected
Substance: CDMPVDPGS [p4450]

Substance: CDMPVLPD [p4457]
reactivity of induced sera with alpha-synuclein [4]: show titers against alpha-synuclein

Substance: CDMPVLPDG [p4497]
Inhibition [1]: 1 (Weaker than original epitope (OD of 40 μg peptide below 5 times of original peptide))

Substance: CDMPVLPDN [p4463]
reactivity of induced sera with alpha-synuclein [4]: show titers against alpha-synuclein
Inhibition [1]: 2 (strong inhibition (as original epitope; OD of 40 μg peptide below 2 times of original peptide))

Substance: CDMPVSPDR [p4555]
Inhibition [1]: 1 (Weaker than original epitope (OD of 40 μg peptide below 5 times of original peptide))

Substance: CDMPVTPDT [p4562]
potential to induce a-syn specific antibodies [6]: potential to induce a-syn specific antibodies
Inhibition [1]: 2 (strong inhibition (as original epitope; OD of 40 μg peptide below 2 times of original peptide))

Substance: CDMPVWPDG [p4569]
Inhibition [1]: 1 (Weaker than original epitope (OD of 40 μg peptide below 5 times of original peptide))

Substance: CDNPVHPEN [p4492]
competition in inhibition ELISA [1]: do not show competition

Substance: CDQPVLPD [p4456]
immune response against unrelated sequence p1253 (irrelevant peptide p1253): failed to induce an unspecific immune response
immune response against injected peptide [2]: elicited immune responses against the injected peptide
potential to induce a-syn specific antibodies [6]: potential to induce a-syn specific antibodies

Substance: CDQPVLPDG [p4496]
Inhibition [1]: 1 (Weaker than original epitope (OD of 40 μg peptide below 5 times of original peptide))

Substance: CDQPVLPDN [p4462]
Inhibition [1]: 2 (strong inhibition (as original epitope; OD of 40 μg peptide below 2 times of original peptide))

Substance: CDQPVYPDI [p4557]
titers upon vaccination of mice [2]: > 1/20000
binding to / detection by the monoclonal antibody in ELISA [3]: weaker binding than the original peptide p4448
Inhibition [1]: 1 (Weaker than original epitope (OD of 40 μg peptide below 5 times of original peptide))

Substance: CDRPVAPEG [p4553]
titers upon vaccination of mice [2]: > 1/20000
binding to / detection by the monoclonal antibody in ELISA [3]: strong binding

Substance: CDRPVQPDR [p4571]
Inhibition [1]: 1 (Weaker than original epitope (OD of 40 μg peptide below 5 times of original peptide))

Substance: CDRPVTPDN [p4491]
competition in inhibition ELISA [1]: show similar competition as the original peptide p4448
Inhibition [1]: 7

Substance: CDRPVYPDI [p4558]
Inhibition [1]: 2 (strong inhibition (as original epitope; OD of 40 μg peptide below 2 times of original peptide))

Substance: CDSPVHPDT [p4567]
Inhibition [1]: 1 (Weaker than original epitope (OD of 40 μg peptide below 5 times of original peptide))

Substance: CDSPVLPDG [p4498]
a-syn staining by induced serum in immunohistochemistry ([6]; murine hippocampus, human a-syn transgenic, sera diluted 1:100 and 1:400, FIG. 6C): specific a-syn staining similar to the staining present in FIG. 6A
potential to induce a-syn specific antibodies [6]: potential to induce a-syn specific antibodies
Inhibition [1]: 1 (Weaker than original epitope (OD of 40 μg peptide below 5 times of original peptide))

Substance: CDSPVLPDN [p4464]
Inhibition [1]: 2 (strong inhibition (as original epitope; OD of 40 μg peptide below 2 times of original peptide))

Substance: CDSPVVPDN [p4564]
Inhibition [1]: 1 (Weaker than original epitope (OD of 40 μg peptide below 5 times of original peptide))

Substance: CDSPVWAEN [p4466]
immune response against unrelated sequence p1253 (irrelevant peptide p1253): failed to induce an unspecific immune response
immune response against injected peptide [2]: elicited immune responses against the injected peptide

Substance: CDTPVIPDN [p4495]
Inhibition [1]: 1 (Weaker than original epitope (OD of 40 μg peptide below 5 times of original peptide))

Substance: CDTPVLAEN [p4467]
immune response against unrelated sequence p1253 (irrelevant peptide p1253): failed to induce an unspecific immune response
immune response against injected peptide [2]: elicited immune responses against the injected peptide

Substance: CDTPVLPDS [p4561]
Inhibition [1]: 2 (strong inhibition (as original epitope; OD of 40 μg peptide below 2 times of original peptide))

Substance: CDTPVYPDN [p4494]
Inhibition [1]: 2 (strong inhibition (as original epitope; OD of 40 μg peptide below 2 times of original peptide))

Substance: CDVPVLPDN [p4493]
Inhibition [1]: 2 (strong inhibition (as original epitope; OD of 40 μg peptide below 2 times of original peptide))

Substance: CEMPVDPDN [P4648]
Inhibition [1]: 1 (Weaker than original epitope (OD of 40 μg peptide below 5 times of original peptide))

Substance: CHDRPVTPDN [p4490]
competition in inhibition ELISA [1]: show similar competition as the original peptide p4448
Inhibition [1]: 2 (strong inhibition (as original epitope; OD of 40 μg peptide below 2 times of original peptide))

Substance: CYDRPVQPDR [p4572]
Inhibition [1]: 1 (Weaker than original epitope (OD of 40 μg peptide below 5 times of original peptide))

Substance: DMPVDPDN
reactivity of induced sera with beta-synuclein [5]: did not distinguish between the two recombinant synuclein proteins

binding to / detection by the monoclonal antibody in ELISA [3]: are detected by the antibody
Substance: DMPVDPDNC [p4449]

binding to / detection by the monoclonal antibody in ELISA [3]: are not detected
Substance: DMPVDPGSC [p4451]

Substance: DMPVLPDC [p4641]
Inhibition [1]: 2 (strong inhibition (as original epitope; OD of 40 μg peptide below 2 times of original peptide))

Substance: DQPVLPDC [p4640]
Inhibition [1]: 2 (strong inhibition (as original epitope; OD of 40 μg peptide below 2 times of original peptide))

binding to / detection by the monoclonal antibody in ELISA [3]: are not detected
Substance: p4447: Human beta-syn (Full length; NCBI Acc. No. NP_001001502)
